The source of these data is patent publication US20040077601A1, “Methods and compositions relating to isoleucine boroproline compounds” (Point Therapeutics, Inc., priority 2002, published 2004).

One data set relates to chemokine KC. As to the kind of experiment: Serum levels of the chemokine KC by ELISA in mice after administration. In general terms: An ELISA detects its analyte on a solid surface through an enzyme-linked reagent.
The target in the next data set is serum DPP-IV (Mus musculus, UniProt P28843). As to the kind of experiment: Serum DPP-IV activity in mice two hours after administration (indicator of bioavailability). The conditions noted are these: 0.2-, 2.0-, 20-, 200-μg doses, subcutaneous injection vs oral gavage, serum two hours later. Format: in vivo.
The subject of another data set is WEHI 164 tumor cells. As to the kind of experiment: WEHI 164 mouse tumor model (subcutaneous inoculation of 4×10^6 tumor cells). It is filed as in vivo, mice. The conditions noted are these: for Tumor sizes, subcutaneous compared to oral: day 20; for Tumor sizes (mean tumor volumes) on day 20 versus saline control: all 3 doses, twice daily day 2 to day 19, n=10; for Incidence of tumor rejection (%): recorded on day 20. As for the experimental part: FIG. 2. Comparison of the anti-tumor activity of Ile-boroPro administered orally or by subcutaneous injection in the WEHI 164 mouse tumor model. Mice were inoculated subcutaneously with 4×10^6 tumor cells and administered Ile-boroPro twice daily from day 2 to day 19 after tumor inoculation, either by oral gavage (open bars) or subcutaneous injection (solid bars). Control mice received saline (hatched bar). The data represent mean tumor volumes±SEM (n=10) were recorded on day 20.
Mice were inoculated subcutaneously with 4×10^6 WEHI 164 tumor cells and administered 2-, 5- or 10-μg doses of Ile-boroPro twice daily from day 2 to […] after tumor inoculation, either by oral gavage or subcutaneous injection. Control mice received saline. […] The greater efficacy of subcutaneous administration was also reflected in the incidence of tumor rejection in mice receiving treatment with the various doses of Ile-boroPro (Table 2). […] It should be noted that tumor rejection was never observed in mice inoculated with WEHI 164 and treated with saline.

The structures appear in SMILES notation.

Chain of serum DPP-IV (P28843 37-760 limits assumed): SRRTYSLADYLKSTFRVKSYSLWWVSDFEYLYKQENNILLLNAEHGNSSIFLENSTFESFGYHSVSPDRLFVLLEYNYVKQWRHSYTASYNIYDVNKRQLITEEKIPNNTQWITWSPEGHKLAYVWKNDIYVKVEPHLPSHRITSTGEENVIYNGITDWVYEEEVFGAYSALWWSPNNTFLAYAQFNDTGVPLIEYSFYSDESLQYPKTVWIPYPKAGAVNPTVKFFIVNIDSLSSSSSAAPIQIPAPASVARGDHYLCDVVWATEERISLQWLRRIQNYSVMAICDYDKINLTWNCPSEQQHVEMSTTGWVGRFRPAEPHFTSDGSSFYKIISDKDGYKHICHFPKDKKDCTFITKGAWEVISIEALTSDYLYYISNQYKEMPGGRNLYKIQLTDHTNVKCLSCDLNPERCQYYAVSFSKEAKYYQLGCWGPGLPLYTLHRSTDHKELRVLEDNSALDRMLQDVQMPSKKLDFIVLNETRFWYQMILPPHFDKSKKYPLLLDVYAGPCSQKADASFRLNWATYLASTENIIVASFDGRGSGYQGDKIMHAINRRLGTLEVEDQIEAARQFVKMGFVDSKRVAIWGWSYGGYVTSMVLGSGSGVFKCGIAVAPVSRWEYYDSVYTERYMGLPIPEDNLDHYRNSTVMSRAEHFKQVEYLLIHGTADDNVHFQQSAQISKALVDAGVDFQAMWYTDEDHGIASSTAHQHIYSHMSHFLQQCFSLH

As to `CCC(C)C(N)C(=O)N1CCCC1B(O)O` (stereo not shown) [Ile-boroPro], the “Time of maximal increases in serum KC levels after administration” value in the data set with chemokine KC is 2 h. Also, the “Bioavailability judged from dose response of inhibition of serum DPP-IV, subcutaneous versus oral” value at serum DPP-IV is given as “more bioavailable”. The “Suppression of tumor growth, subcutaneous versus oral administration (tumor volumes on day 20)” value with WEHI 164 tumor cells (2-, 5- or 10-μg doses twice daily) was “more effective than oral administration in suppressing tumor growth”. In addition, the “Tumor sizes, subcutaneous compared to oral” value was “significantly smaller” in the data set with WEHI 164 tumor cells (2-μg dose twice daily, P<0.0005) and “significantly smaller” in the data set on WEHI 164 tumor cells (5-μg dose twice daily, P<0.005). Besides, the “Tumor sizes (mean tumor volumes) on day 20 versus saline control” value in the data set with WEHI 164 tumor cells (oral gavage, P<0.05) is given as “significant reduction in tumor sizes”; in the data set with WEHI 164 tumor cells (subcutaneous injection, P<0.00005), “significant reduction in tumor sizes”. The “Incidence of tumor rejection (%)” value in the data set on WEHI 164 tumor cells (oral, 10 μg twice daily day 2 to day 19, 2 separate experiments) is on record as “caused tumor rejection”; with WEHI 164 tumor cells (subcutaneous, 2 μg twice daily day 2 to day 19, one experiment), 60%; in the data set on WEHI 164 tumor cells (subcutaneous, 5 μg twice daily day 2 to day 19, one experiment) it was 70%.
